{
  "source": "patent EP0258134A1",
  "about": "“Therapeutical compositions containing benzhydryl thiomethane derivatives” (LABORATOIRE L. LAFON, priority 1986, dated 1988)",
  "type_in_all_cases": "in vivo",
  "key": {"souris [1]": {"tested_on": "souris", "assay": "Interaction with apomorphine, mouse", "procedure": "Des lots de 6 souris reçoivent le composé CRL 41 334 une demi-heure avant l'injection sous-cutanée d'apomorphine, à la dose de 1 ou 16 mg/kg. • a) Apomorphine 1 mg/kg • b) Apomorphine 16 mg/kg"}, "rat [2]": {"tested_on": "rat", "assay": "Interaction with amphetamine, rat", "conditions": "rat, 16, mais surtout 64 mg/kg, amphétamine 2 mg/kg i.p.", "procedure": "L'amphétamine (2 mg/kg) est injectée par Voie intrapéritonéale à des lots de 6 rats, une demi-heure après l'administration du composé CRL 41 334."}, "rat [3]": {"tested_on": "rat", "assay": "Search for stereotyped movements, rat", "source_text": "Des lots de 6 rats reçoivent une injection du composé CRL 41 334 ou d'amphétamine, puis sont immédiatement placés dans des boîtes de petites dimensions (20 x 10 x 10 cm) où leur comportement stéréotypeé est coté de 0 à 3 jusqu'à extinction de l'effet."}, "souris [4]": {"tested_on": "souris", "assay": "Interaction with oxotremorine, mouse", "conditions": "oxotrémorine 0,5 mg/kg i.p.", "procedure": "Le composé CRL 41 334 est administré à des lots de 6 souris une demi-heure avant l'injection intrapéritonéale de 0,5 mg/kg d'oxotrémorine."}, "souris [5]": {"tested_on": "souris", "assay": "Spontaneous motility (actimeter)", "procedure": "Après avoir reçu le composé CRL 41 334, les souris sont placées en actimètre où leur motilité est enregistrée pendant 30 minutes.\nUne demi-heure après avoir reçu le CRL 41 055, les souris (6 par dose, 12 témoins) sont placées en actimètre où leur motilité est enregistrée pendant 30 minutes.\nUne demi-heure après avoir reçu le CRL 40 956, les souris (6 par dose, 12 témoins) sont placées en actimètre ou leur motilité est enregistrée pendant 30 minutes."}, "rat [6]": {"tested_on": "rat", "assay": "Interaction with apomorphine, rat", "conditions": "16 et 64 mg/kg, apomorphine 0,5 mg/kg s.c.", "procedure": "Le composé CRL 41 334 est administré à des lots de 6 rats une demi-heure avant l'injection sous-cutanée de 0,5 mg/kg d'apomorphine.\nLe CRL 40 956 est administré à des lots de 6 rats une demi-heure avant l'injection sous cutanée de 0,5 mg/kg d'apomorphine."}, "[7]": {"tested_on": "souris femelles de souche OF₁", "assay": "Delayed hypersensitivity reaction to sheep red blood cells", "conditions": "for Ind. Activité / % d'augmentation du coussinet (mm) m: voie orale; for % d'augmentation du coussinet (mm) m: trois jours avant immunisation", "source_text": "Selon la méthode de Miller, Lagrange et Mackaness (\"Immunopotentiation with BCG II modulation of the response to sheep red blood cells\", Journal of the National Cancer Institute 1973, 51, 5, 1669 - 1676).\nLe composé à tester est administré par voie orale a des souris femelles de souche OF₁ trois jours avant immunisation.\nLes résultats sont exprimés en pourcentage d'augmentation du coussinet plantaire."}, "homme": {"tested_on": "homme", "assay": "Therapeutic use in humans", "conditions": "homme, voie orale, 4 fois 50 mg par jour"}, "rat [8]": {"tested_on": "rat", "assay": "Global behaviour and reactivities, rat, i.p.", "procedure": "Le composé CRL 41 334, en suspension dans une solution de gomme arabique, a été administré par voie intrapéritonéale sous un volume de 20 ml/kg chez la souris (mâle, NMRI, C.E.R. Janvier) et de 5 ml/kg chez le rat (mâle, CD₁; SPRAGUE DAWLEY, Charles River).\nDes lots de 3 animaux sont observés avant, puis 15 mn, 30 mn, 1h, 2h, 3h et 24 heures après l'administration du composé CRL 41 334.\nLe CRL 40 956, en suspension dans une solution de gomme arabique a été administré par voie intrapéritonéale sous un volume de 20 ml/kg chez la souris (mâle, NMRI, Evic Céba) et de 5 ml/kg chez le rat (mâle, CD₁, Sprague Dawley, Charles River).\nDes lots de 3 animaux sont observés avant, puis 15 mn, 30 mn, 1 h, 2 h, 3 h et 24 heures après l'administration de CRL 40 956."}, "souris [9]": {"tested_on": "souris", "assay": "Motility reduced by hypoxic aggression", "procedure": "Une demi-heure après avoir reçu le composé CRL 41 334, les souris (10 par dose, 20 témoins) sont soumises à une anoxie hypobare aigüe (dépression de 60 mmHg en 90 secondes, détente de 45 secondes), puis elles sont placées en actimètre où leur motilité est enregistrèe pendant 10 minutes."}, "souris [10]": {"tested_on": "souris", "assay": "Interaction with barbital", "conditions": "souris, 8, 32 et 128mg/kg, barbital 220 mg/kg i.p.", "procedure": "Une demi-heure après l'administration du composé CRL 41 334, des lots de 20 souris reçoivent une injection intrapéritonéale de barbital ([…]).\nUne demi-heure après l'administration du CRL 40 956 des lots de 10 souris reçoivent une injection intrapéritonéale de 200 mg/kg de barbital."}, "souris [11]": {"tested_on": "souris", "assay": "Motility reduced by habituation to the enclosure", "conditions": "dès la dose de 2 mg/kg", "procedure": "Après 18 heures de séjour dans les actimè-tres, les souris (6 par dose, 12 témoins) reçoivent le composé CRL 41 334. Elles sont aussitôt replacées dans leurs enceintes respectives et, une demi-heure plus tard, on enregistre leur motilité pendant 30 minutes.\nAprès 18 heures de séjour dans les actimètres, les souris (6 par dose, 12 émoins) reçoivent le CRL 41 055. Elles sontaussitôt replacées dans leurs enceintes respectives et, une demi-heure plus tard, on enregistre leur motilité pendant 30 minutes."}},
  "note": "Marks after values point to notes of the source that are not given here.",
  "data": [
    {"smiles": "NC(=O)CSC(c1ccc(F)cc1)c1ccc(F)cc1", "note": "[CRL 41 334, 2-(4,4ʹ-difluorobenzhydrylthio)acétamide]", "values": [
      {"measurement": "hypothermie induite par l'apomorphine", "setting": "souris [1]; 128 mg/kg, apomorphine 1 mg/kg s.c.", "value": "aggrave l'hypothermie induite par l'apomorphine"},
      {"measurement": "température", "setting": "souris [1]; 128 mg/kg, compound alone", "value": "entraîne une hypothermie"},
      {"measurement": "comportements de verticalisation et de stéréotypies", "setting": "souris [1]; apomorphine 1 ou 16 mg/kg s.c.", "value": "NE SONT PAS MODIFIES"},
      {"measurement": "stéréotypies amphétaminiques", "setting": "rat [2]", "value": "potentialise les stéréotypies amphétaminiques"},
      {"measurement": "durée des stéréotypies", "setting": "rat [3]; 128 mg/kg", "value": "> 420", "unit": "min"},
      {"measurement": "stéréotypies atteignent leur maximum", "setting": "rat [3]; 128 mg/kg", "value": "120 to 150", "unit": "min"},
      {"measurement": "intensité des stéréotypies", "setting": "rat [3]; 64 et 128 mg/kg, compared with amphétamine", "value": "comparable à celle obtenue respectivement avec 1 et 2 mg"},
      {"measurement": "Action sur la température", "setting": "souris [4]; 128 mg/kg", "value": "aggrave l'hypothermie induite par l'oxotrémorine"},
      {"measurement": "Action sur les symptômes chlolinergiques périphériques", "setting": "souris [4]; 128 mg/kg", "value": "diminue la défécation sans modifier la salivation et la lacrymation"},
      {"measurement": "Action sur les tremblements", "setting": "souris [4]", "value": "ne sont pas modifiés"},
      {"measurement": "motilité spontanée", "setting": "souris [5]; souris, 128 mg/kg, 30 minutes avant passage dans l'actimètre", "value": "cet effet n'apparaît plus"},
      {"measurement": "motilité spontanée", "setting": "souris [5]; souris, 8, mais surtout 32 et 128 mg/kg, 2 heures avant passage dans l'actimètre", "value": "augmentation de la motilité spontanée"},
      {"measurement": "motilité spontanée", "setting": "souris [5]; souris, 32 et 64 mg/kg, 30 minutes avant passage dans l'actimètre", "value": "augmentation de la motilité"},
      {"measurement": "stéréotypies induites par l'apomorphine", "setting": "rat [6]", "value": "potentialise"},
      {"measurement": "Ind. Activité", "setting": "[7]; Exp 1, 0,1 mg/kg", "value": "1,15"},
      {"measurement": "% d'augmentation du coussinet (mm) m", "setting": "[7]; Exp 1, 0,1 mg/kg", "value": "10,6%"},
      {"measurement": "Ind. Activité", "setting": "[7]; Exp 1, 1 mg/kg", "value": "1,10"},
      {"measurement": "% d'augmentation du coussinet (mm) m", "setting": "[7]; Exp 1, 1 mg/kg", "value": "10,2%"},
      {"measurement": "Ind. Activité", "setting": "[7]; Exp 1, 10 mg/kg", "value": "1,29"},
      {"measurement": "% d'augmentation du coussinet (mm) m", "setting": "[7]; Exp 1, 10 mg/kg", "value": "12,0%"},
      {"measurement": "Ind. Activité", "setting": "[7]; Exp 1, 100 mg/kg", "value": "1,59"},
      {"measurement": "% d'augmentation du coussinet (mm) m", "setting": "[7]; Exp 1, 100 mg/kg", "value": "14,7^x %"},
      {"measurement": "Ind. Activité", "setting": "[7]; Exp 2, 0,1 mg/kg", "value": "1,31"},
      {"measurement": "% d'augmentation du coussinet (mm) m", "setting": "[7]; Exp 2, 0,1 mg/kg", "value": "11,0%"},
      {"measurement": "Ind. Activité", "setting": "[7]; Exp 2, 1 mg/kg", "value": "1,25"},
      {"measurement": "% d'augmentation du coussinet (mm) m", "setting": "[7]; Exp 2, 1 mg/kg", "value": "10,5%"},
      {"measurement": "Ind. Activité", "setting": "[7]; Exp 2, 10 mg/kg", "value": "1,34"},
      {"measurement": "% d'augmentation du coussinet (mm) m", "setting": "[7]; Exp 2, 10 mg/kg", "value": "11,2%"},
      {"measurement": "Ind. Activité", "setting": "[7]; Exp 2, 100 mg/kg", "value": "1,56"},
      {"measurement": "% d'augmentation du coussinet (mm) m", "setting": "[7]; Exp 2, 100 mg/kg", "value": "13,1%"},
      {"measurement": "action immunostimulante", "setting": "[7]; overall statement in the text", "value": "une action immunostimulante"},
      {"measurement": "traitement des dépressions des brûlés", "setting": "homme", "value": "bons résultats"},
      {"measurement": "comportement et réactivités", "setting": "rat [8]; rat, 64 mg/kg i.p.", "value": "sédation pendant 15 minutes"},
      {"measurement": "diamètre pupillaire", "setting": "rat [8]; rat, 64 mg/kg i.p., à 1 heure", "value": "mydriase très modérée et brève"},
      {"measurement": "comportement, réactivités, variation du diamètre pupillaire et de la température rectale", "setting": "rat [8]; rat, 1, 4 et 16 mg/kg i.p.", "value": "comparables à ceux du lot témoin"},
      {"measurement": "récupération motrice après anoxie hypobare", "setting": "souris [9]; 32 et 128 mg/kg", "value": "amélioration est importante"},
      {"measurement": "récupération motrice après anoxie hypobare", "setting": "souris [9]; dès la dose de 2mg/kg", "value": "amélioration de la récupération"},
      {"measurement": "durée du sommeil barbiturique", "setting": "souris [10]", "value": "diminution importante de la durée du sommeil barbiturique"},
      {"measurement": "activité motrice chez la souris habituée à son enceinte", "setting": "souris [11]", "value": "reprise nette de l'activité motrice"}
    ]}
  ]
}
